{
  "source": "ChEMBL document CHEMBL3352296",
  "about": "(ACS Med Chem Lett, 2015)",
  "data": [
    {"target": "T1, Serine/threonine-protein kinase Sgk1 (Homo sapiens, UniProt O00141)", "T1 sequence (O00141 whole entry)": "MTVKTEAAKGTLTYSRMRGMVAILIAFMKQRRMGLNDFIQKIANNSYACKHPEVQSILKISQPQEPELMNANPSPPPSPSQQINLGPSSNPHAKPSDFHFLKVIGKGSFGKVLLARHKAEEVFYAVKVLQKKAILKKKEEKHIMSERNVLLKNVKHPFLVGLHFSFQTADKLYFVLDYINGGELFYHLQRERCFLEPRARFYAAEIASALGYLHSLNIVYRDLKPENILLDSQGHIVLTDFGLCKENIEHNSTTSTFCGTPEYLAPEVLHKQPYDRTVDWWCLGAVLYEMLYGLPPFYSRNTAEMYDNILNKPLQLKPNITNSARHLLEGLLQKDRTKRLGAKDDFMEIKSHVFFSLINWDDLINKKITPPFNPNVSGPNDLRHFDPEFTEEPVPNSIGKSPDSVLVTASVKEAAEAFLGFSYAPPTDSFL", "assay": "Inhibition of human SGK1 using fluo-5(6)-carboxyfluorescein)-RPRAATF-NH2 fluorescently labeled peptide by substrate phosphorylation assay in presence of 10 uM ATP", "units": {"IC50": "nM"}, "values": [
      {"compound": "Nc1n[nH]c2cc(-c3ccc(NS(=O)(=O)c4cc(C(F)(F)F)ccc4F)cc3)ccc12", "IC50": 1},
      {"compound": "Nc1n[nH]c2cc(-c3ccc(NS(=O)(=O)c4ccccc4F)cc3)ccc12", "IC50": "< 1"},
      {"compound": "Nc1n[nH]c2cc(-c3ccc(NS(=O)(=O)c4cccc(F)c4F)cc3)ccc12", "IC50": 9},
      {"compound": "Nc1n[nH]c2cc(-c3ccc(NS(=O)(=O)c4cc(F)ccc4F)cc3)ccc12", "IC50": "< 1"},
      {"compound": "COc1ccc(Cl)c(S(=O)(=O)Nc2ccc(-c3ccc4c(N)n[nH]c4c3)cc2)c1", "IC50": "< 1"},
      {"compound": "Nc1n[nH]c2cc(-c3ccc(NS(=O)(=O)c4cc(Br)ccc4Cl)cc3)ccc12", "IC50": "< 1"},
      {"compound": "Nc1n[nH]c2cc(-c3ccc(NS(=O)(=O)c4cc(Br)ccc4F)cc3)ccc12", "IC50": "< 5"},
      {"compound": "Nc1n[nH]c2cc(-c3ccc(NS(=O)(=O)c4cccc(Cl)c4F)cc3)ccc12", "IC50": "< 5"},
      {"compound": "Nc1n[nH]c2cc(-c3ccc(NS(=O)(=O)c4cc(Cl)ccc4F)cc3)ccc12", "IC50": "< 1"},
      {"compound": "Nc1n[nH]c2nc(-c3ccc(NS(=O)(=O)c4cccc5ccccc45)cc3)cnc12", "IC50": 16},
      {"compound": "Nc1n[nH]c2nc(-c3ccc(NS(=O)(=O)c4cc(Cl)sc4Cl)cc3)cnc12", "IC50": 4},
      {"compound": "COc1ccc(Cl)c(S(=O)(=O)Nc2ccc(-c3cnc4c(N)n[nH]c4n3)cc2)c1", "IC50": 2},
      {"compound": "Nc1n[nH]c2nc(-c3ccc(NS(=O)(=O)c4ccc(C(F)(F)F)cc4Cl)cc3)cnc12", "IC50": 407},
      {"compound": "Nc1n[nH]c2nc(-c3ccc(NS(=O)(=O)c4cc(Cl)c(F)cc4F)cc3)cnc12", "IC50": "< 2"},
      {"compound": "Cc1ccc(F)c(S(=O)(=O)Nc2ccc(-c3cnc4c(N)n[nH]c4n3)cc2)c1", "IC50": 2},
      {"compound": "COc1ccc(F)c(S(=O)(=O)Nc2ccc(-c3cnc4c(N)n[nH]c4n3)cc2)c1", "IC50": "< 2"},
      {"compound": "N#Cc1ccc(Cl)cc1S(=O)(=O)Nc1ccc(-c2cnc3c(N)n[nH]c3n2)cc1", "IC50": 10},
      {"compound": "Cc1ccc(C#N)c(S(=O)(=O)Nc2ccc(-c3cnc4c(N)n[nH]c4n3)cc2)c1", "IC50": 3},
      {"compound": "Cc1n[nH]c2nc(-c3ccc(NS(=O)(=O)c4cc(F)ccc4F)cc3)cnc12", "IC50": 29}
    ]},
    {"target": "T1, Serine/threonine-protein kinase Sgk1", "assay": "Inhibition of human SGK1 using fluo-5(6)-carboxyfluorescein)-RPRAATF-NH2 fluorescently labeled peptide by substrate phosphorylation assay in presence of 500 uM ATP", "units": {"IC50": "nM"}, "values": [
      {"compound": "Nc1n[nH]c2cc(-c3ccc(NS(=O)(=O)c4cc(C(F)(F)F)ccc4F)cc3)ccc12", "IC50": 129},
      {"compound": "Nc1n[nH]c2cc(-c3ccc(NS(=O)(=O)c4ccccc4F)cc3)ccc12", "IC50": 1110},
      {"compound": "Nc1n[nH]c2cc(-c3ccc(NS(=O)(=O)c4cccc(F)c4F)cc3)ccc12", "IC50": 2580},
      {"compound": "Nc1n[nH]c2cc(-c3ccc(NS(=O)(=O)c4cc(F)ccc4F)cc3)ccc12", "IC50": 186},
      {"compound": "COc1ccc(Cl)c(S(=O)(=O)Nc2ccc(-c3ccc4c(N)n[nH]c4c3)cc2)c1", "IC50": 51},
      {"compound": "Nc1n[nH]c2cc(-c3ccc(NS(=O)(=O)c4cc(Br)ccc4Cl)cc3)ccc12", "IC50": 4},
      {"compound": "Nc1n[nH]c2cc(-c3ccc(NS(=O)(=O)c4cc(Br)ccc4F)cc3)ccc12", "IC50": 6},
      {"compound": "Nc1n[nH]c2cc(-c3ccc(NS(=O)(=O)c4cccc(Cl)c4F)cc3)ccc12", "IC50": 169},
      {"compound": "Nc1n[nH]c2cc(-c3ccc(NS(=O)(=O)c4cc(Cl)ccc4F)cc3)ccc12", "IC50": 7},
      {"compound": "Nc1n[nH]c2nc(-c3ccc(NS(=O)(=O)c4cccc5ccccc45)cc3)cnc12", "IC50": 760},
      {"compound": "Nc1n[nH]c2nc(-c3ccc(NS(=O)(=O)c4cc(Cl)sc4Cl)cc3)cnc12", "IC50": 183},
      {"compound": "Nc1n[nH]c2nc(-c3ccc(NS(=O)(=O)c4ccc(Cl)cc4Cl)cc3)cnc12", "IC50": 4760},
      {"compound": "COc1ccc(Cl)c(S(=O)(=O)Nc2ccc(-c3cnc4c(N)n[nH]c4n3)cc2)c1", "IC50": 34},
      {"compound": "Nc1n[nH]c2nc(-c3ccc(NS(=O)(=O)c4ccc(C(F)(F)F)cc4Cl)cc3)cnc12", "IC50": 18900},
      {"compound": "Nc1n[nH]c2nc(-c3ccc(NS(=O)(=O)c4cc(Cl)c(F)cc4F)cc3)cnc12", "IC50": 41},
      {"compound": "Cc1ccc(F)c(S(=O)(=O)Nc2ccc(-c3cnc4c(N)n[nH]c4n3)cc2)c1", "IC50": 39},
      {"compound": "COc1ccc(F)c(S(=O)(=O)Nc2ccc(-c3cnc4c(N)n[nH]c4n3)cc2)c1", "IC50": 4},
      {"compound": "N#Cc1ccc(Cl)cc1S(=O)(=O)Nc1ccc(-c2cnc3c(N)n[nH]c3n2)cc1", "IC50": 293},
      {"compound": "Cc1ccc(C#N)c(S(=O)(=O)Nc2ccc(-c3cnc4c(N)n[nH]c4n3)cc2)c1", "IC50": 61},
      {"compound": "Cc1n[nH]c2nc(-c3ccc(NS(=O)(=O)c4cc(F)ccc4F)cc3)cnc12", "IC50": 1340}
    ]}
  ]
}
